Measurements as given in patent US20260109712A1, “RIFAMYCINS FOR NONTUBERCULOUS MYCOBACTERIA” (priority 2022, published 2026).
Values after ≈ are worked out from the molar mass of the structure shown. Blank lines part the entries; values can stand above or below the compound they belong to.

Assays:
M. abscessus ATCC 19977 = experiment: MIC assay in 96-well plate format, wild-type strain; type: cell-based, Mycobacterium abscessus; conditions: for MICWT: Table 10; for MIC: Table 15, heterocyclic aromatic carbamates, read-out: WT Mab MIC
Summary of the method: (§1)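 Two-fold, ten-point dilutions in 7H9 with 2% DMSO; mid-log culture diluted to OD600=0.1 (1×10^7 CFU/mL). Incubated 3 days at 37 °C, shaking 110 RPM; growth = Day 3 minus Day 0 OD600, expressed as percentage of drug-free growth and plotted against concentration. Two biological replicates.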

Mycobacterium abscessus = experiment: MIC against Mycobacterium abscessus (strain not given); type: cell-based; conditions: Table 13; read-out: Mab MIC
Δarr M. abscessus = experiment: MIC assay, isogenic arr-deleted strain; type: cell-based, Mycobacterium abscessus; conditions: Table 10
Summary of the method: as §1

[1] = Plasma protein binding assay (rapid equilibrium dialysis); type: in vitro ADME
Procedure: DMSO stocks were spiked into plasma to a concentration of 10,000 ng/mL. 200 μL of spiked plasma was pipetted into the sample chamber of the rapid equilibrium dialysis (RED) cartridge. 350 μL of PBS was added to the adjacent cartridge. The plate containing the RED was sealed and incubated at 37° C. on the thermomixer at 300 RPM for 4 h. After incubation, 50 μL aliquots of plasma were removed and added to 50 μL of blank plasma in a deep well plate (1:1). Similarly, 50 μL aliquots of PBS were removed and added to 50 μL of blank plasma. This created an identical matrix between buffer and non-buffer samples. Samples were processed and quantified as specified in the LC-MS/MS analytical method.

[2] = Mouse pharmacokinetics studies; type: in vivo, CD-1 mice; conditions: for AUCp.o.: po; for C-25 deacylation i.v. / C-25 deacylation p.o.: AUC25-O-desacetyl RFB/AUCcompound × 100%, n.d. = undetectable
Procedure: Blood was captured in CB300 blood collection tubes containing K2EDTA and stored on ice. Plasma was recovered after centrifugation and stored at −80° C. until analyzed by high pressure liquid chromatography coupled to tandem mass spectrometry (LC-MS/MS). Pharmacokinetic parameters were calculated using non-compartmental pharmacokinetic analysis. […] Extracts were vortexed for 5 minutes and centrifuged at 4000 RPM for 5 minutes. 75 μL of supernatant was transferred for LC-MS/MS analysis and diluted with 75 μL of Milli-Q deionized water. Rifabutin was purchased from Carbosynth. C25-desacetyl rifabutin and rifabutin-d7 were purchased from Toronto Research Chemical. Verapamil was purchased from Sigma-Aldrich. […] Multiple-reaction monitoring of parent/daughter transitions in electrospray positive-ionization mode was used to quantify all analytes. […] Data processing was performed using Analyst software (version 1.6.2; Applied Biosystems Sciex).

[3] = p.o. doses of 10 mg/kg, Table 12

SMILES: COc1ccc(C(=O)O[C@H]2[C@H](C)[C@H](O)[C@H](C)[C@@H](O)[C@@H](C)/C=C/C=C(\C)C(=O)NC3=C4NC5(CCN(CC(C)C)CC5)N=C4c4c(c(O)c(C)c5c4C(=O)[C@@](C)(O/C=C/[C@H](OC)[C@H]2C)O5)C3=O)cc1 [UMN10]
MICWT (M. abscessus ATCC 19977): 0.06 µM
MIC (Mycobacterium abscessus): 0.06 µM (≈ 0.0563 µg/mL)
MICΔorr (Δarr M. abscessus): 0.065 µM
ƒu [1]: 0.02%
plasma unbound fraction ([1]; plasma): 0%

SMILES: CO[C@H]1/C=C/O[C@@]2(C)Oc3c(C)c(O)c4c(c3C2=O)C2=NC3(CCN(CC(C)C)CC3)NC2=C(NC(=O)/C(C)=C/C=C/[C@H](C)[C@H](O)[C@@H](C)[C@@H](O)[C@@H](C)[C@H](OC(=O)Nc2ccccc2)[C@@H]1C)C4=O [UMN14]
MICWT (M. abscessus ATCC 19977): 0.027 µM
MIC (M. abscessus ATCC 19977): 0.027 µM (≈ 0.025 µg/mL)
MICΔorr (Δarr M. abscessus): 0.042 µM
ƒu [1]: 0.1%
plasma unbound fraction ([1]; plasma): 0.08%
ƒAUC/MIC ([2]; Table 18): 0.8
CL ([2]; mouse, in vivo): 2.40 mL/min/kg
F ([2]; mouse, in vivo): 38%
Vd ([2]; mouse, in vivo): 1.93 L/kg
AUCp.o. ([2]; mouse, in vivo): 25625 ng·h/mL

SMILES: CO[C@H]1/C=C/O[C@@]2(C)Oc3c(C)c(O)c4c(c3C2=O)C2=NC3(CCN(CC(C)C)CC3)NC2=C(NC(=O)/C(C)=C/C=C/[C@H](C)[C@H](O)[C@@H](C)[C@@H](O)[C@@H](C)[C@H](OC(=O)Nc2cccnn2)[C@@H]1C)C4=O [UMN64]
MICWT (M. abscessus ATCC 19977): 0.032 µM
MICΔorr (Δarr M. abscessus): 0.034 µM
plasma unbound fraction ([1]; Table 10): 4.15%

SMILES: CO[C@H]1/C=C/O[C@@]2(C)Oc3c(C)c(O)c4c(c3C2=O)C2=NC3(CCN(CC(C)C)CC3)NC2=C(NC(=O)/C(C)=C/C=C/[C@H](C)[C@H](O)[C@@H](C)[C@@H](O)[C@@H](C)[C@H](OC(=O)Nc2cccnc2)[C@@H]1C)C4=O [UMN67]
MICWT (M. abscessus ATCC 19977): 0.025 µM
MICΔorr (Δarr M. abscessus): 0.025 µM
plasma unbound fraction ([1]; Table 10): 1.75%

SMILES: COC1C=COC2(C)Oc3c(C)c(O)c4c(c3C2=O)C2=NC3(CCN(CC(C)C)CC3)NC2=C(NC(=O)C(C)=CC=CC(C)C(O)C(C)C(O)C(C)C(OC(=O)N2CCOC(C)C2)C1C)C4=O (stereo not shown) [UMN68]
MICWT (M. abscessus ATCC 19977): 0.061 µM
MICΔorr (Δarr M. abscessus): 0.033 µM
plasma unbound fraction ([1]; Table 10): 2.40%

SMILES: CO[C@H]1/C=C/O[C@@]2(C)Oc3c(C)c(O)c4c(c3C2=O)C2=NC3(CCN(CC(C)C)CC3)NC2=C(NC(=O)/C(C)=C/C=C/[C@H](C)[C@H](O)[C@@H](C)[C@@H](O)[C@@H](C)[C@H](OC(=O)Nc2nncs2)[C@@H]1C)C4=O [UMN69]
MICWT (M. abscessus ATCC 19977): 0.026 µM
MIC (M. abscessus ATCC 19977): 0.026 µM (≈ 0.0242 µg/mL)
MICΔorr (Δarr M. abscessus): 0.027 µM
ƒu [1]: 5.3%
plasma unbound fraction ([1]; plasma): 5.30%
ƒAUC/MIC ([2]; Table 18): 26.5
CL ([2]; mouse, in vivo): 6.19 mL/min/kg
F ([2]; mouse, in vivo): 45%
Vd ([2]; mouse, in vivo): 1.14 L/kg
AUCp.o. ([2]; mouse, in vivo): 12103 ng·h/mL

SMILES: COC1C=COC2(C)Oc3c(C)c(O)c4c(c3C2=O)C2=NC3(CCN(CC(C)C)CC3)NC2=C(NC(=O)C(C)=CC=CC(C)C(O)C(C)C(O)C(C)C(OC(=O)N2CCOC(C)C2)C1C)C4=O (stereo not shown) [UMN70]
MICWT (M. abscessus ATCC 19977): 0.08 µM
MICΔorr (Δarr M. abscessus): 0.026 µM
plasma unbound fraction ([1]; Table 10): 0.56%

SMILES: CO[C@H]1/C=C/O[C@@]2(C)Oc3c(C)c(O)c4c(c3C2=O)C2=NC3(CCN(CC(C)C)CC3)NC2=C(NC(=O)/C(C)=C/C=C/[C@H](C)[C@H](O)[C@@H](C)[C@@H](O)[C@@H](C)[C@H](OC(=O)N2CCOC(C)(C)C2)[C@@H]1C)C4=O [UMN71]
MICWT (M. abscessus ATCC 19977): 0.076 µM
MICΔorr (Δarr M. abscessus): 0.032 µM
plasma unbound fraction ([1]; Table 10): 0.39%

SMILES: CCOC(=O)C1CN(C(=O)O[C@H]2[C@H](C)[C@H](O)[C@H](C)[C@@H](O)[C@@H](C)/C=C/C=C(\C)C(=O)NC3=C4NC5(CCN(CC(C)C)CC5)N=C4c4c(c(O)c(C)c5c4C(=O)[C@@](C)(O/C=C/[C@H](OC)[C@H]2C)O5)C3=O)CCO1 (stereo partly shown) [UMN72]
MICWT (M. abscessus ATCC 19977): 0.082 µM
MICΔorr (Δarr M. abscessus): 0.040 µM
plasma unbound fraction ([1]; Table 10): 0.75%

SMILES: CCN1CCN(C(=O)O[C@H]2[C@H](C)[C@H](O)[C@H](C)[C@@H](O)[C@@H](C)/C=C/C=C(\C)C(=O)NC3=C4NC5(CCN(CC(C)C)CC5)N=C4c4c(c(O)c(C)c5c4C(=O)[C@@](C)(O/C=C/[C@H](OC)[C@H]2C)O5)C3=O)CC1 [UMN73]
MICWT (M. abscessus ATCC 19977): 0.1 µM
MICΔorr (Δarr M. abscessus): 0.052 µM
plasma unbound fraction ([1]; Table 10): 0.65%

SMILES: CO[C@H]1/C=C/O[C@@]2(C)Oc3c(C)c(O)c4c(c3C2=O)C2=NC3(CCN(CC(C)C)CC3)NC2=C(NC(=O)/C(C)=C/C=C/[C@H](C)[C@H](O)[C@@H](C)[C@@H](O)[C@@H](C)[C@H](OC(=O)NCc2cn(Cc3ccccc3)nn2)[C@@H]1C)C4=O [UMN85]
MICWT (M. abscessus ATCC 19977): 0.027 µM
MICΔorr (Δarr M. abscessus): 0.025 µM
plasma unbound fraction ([1]; Table 10): 0.30%

MIC (Mycobacterium abscessus): 0.057 µM (≈ 0.0519 µg/mL)
ƒu [1]: 9.8%
SMILES: CO[C@H]1/C=C/O[C@@]2(C)Oc3c(C)c(O)c4c(c3C2=O)C2=NC3(CCN(CC(C)C)CC3)NC2=C(NC(=O)/C(C)=C/C=C/[C@H](C)[C@H](O)[C@@H](C)[C@@H](O)[C@@H](C)[C@H](OC(=O)c2ncccn2)[C@@H]1C)C4=O [UMN92]

MIC (Mycobacterium abscessus): 0.057 µM (≈ 0.0522 µg/mL)
ƒu [1]: 1.6%
SMILES: CO[C@H]1/C=C/O[C@@]2(C)Oc3c(C)c(O)c4c(c3C2=O)C2=NC3(CCN(CC(C)C)CC3)NC2=C(NC(=O)/C(C)=C/C=C/[C@H](C)[C@H](O)[C@@H](C)[C@@H](O)[C@@H](C)[C@H](OC(=O)c2cncs2)[C@@H]1C)C4=O [UMN93]

SMILES: CO[C@H]1/C=C/O[C@@]2(C)Oc3c(C)c(O)c4c(c3C2=O)C2=NC3(CCN(CC(C)C)CC3)NC2=C(NC(=O)/C(C)=C/C=C/[C@H](C)[C@H](O)[C@@H](C)[C@@H](O)[C@@H](C)[C@H](OC(=O)Nc2ccncc2)[C@@H]1C)C4=O [UMN105]
MIC (M. abscessus ATCC 19977): 0.025 µM (≈ 0.0231 µg/mL)
ƒu [1]: 2.0%
CL ([2]; mouse, in vivo): 7.57 mL/min/kg
F ([2]; mouse, in vivo): 63%
Vd ([2]; mouse, in vivo): 3.78 L/kg
ƒAUC/MIC ([2]; mouse, in vivo): 9.4
AUCp.o. ([2]; mouse, in vivo): 14210 ng·h/mL

MIC (Mycobacterium abscessus): 0.051 µM (≈ 0.0465 µg/mL)
ƒu [1]: 12.7%
SMILES: CO[C@H]1/C=C/O[C@@]2(C)Oc3c(C)c(O)c4c(c3C2=O)C2=NC3(CCN(CC(C)C)CC3)NC2=C(NC(=O)/C(C)=C/C=C/[C@H](C)[C@H](O)[C@@H](C)[C@@H](O)[C@@H](C)[C@H](OC(=O)c2cccnn2)[C@@H]1C)C4=O [UMN111]

SMILES: CO[C@H]1/C=C/O[C@@]2(C)Oc3c(C)c(O)c4c(c3C2=O)C2=NC3(CCN(CC(C)C)CC3)NC2=C(NC(=O)/C(C)=C/C=C/[C@H](C)[C@H](O)[C@@H](C)[C@@H](O)[C@@H](C)[C@H](OC(=O)c2ccccc2)[C@@H]1C)C4=O [drawing 217]
plasma unbound fraction ([1]; Table 12): 0.03%
C-25 deacylation i.v. [2]: 0.03%
C-25 deacylation p.o. [2]: 0.008%
CL ([2]; Table 12): 2.4 mL/min/kg
Vd ([2]; Table 12): 2.9 L/kg
t1/2 ([2]; Table 12): 13.8 h
ƒAUC/MIC [2, 3]: 0.08

SMILES: CO[C@H]1/C=C/O[C@@]2(C)Oc3c(C)c(O)c4c(c3C2=O)C2=NC3(CCN(CC(C)C)CC3)NC2=C(NC(=O)/C(C)=C/C=C/[C@H](C)[C@H](O)[C@@H](C)[C@@H](O)[C@@H](C)[C@H](OC(=O)Nc2ccccc2)[C@@H]1C)C4=O [drawing 220]
plasma unbound fraction ([1]; Table 12): 0.0008%
C-25 deacylation i.v. [2]: 0.08%
C-25 deacylation p.o. [2]: 0.001%
CL ([2]; Table 12): 2.4 mL/min/kg
Vd ([2]; Table 12): 1.9 L/kg
t1/2 ([2]; Table 12): 9.3 h
ƒAUC/MIC [2, 3]: 0.43

SMILES: CO[C@H]1/C=C/O[C@@]2(C)Oc3c(C)c(O)c4c(c3C2=O)C2=NC3(CCN(CC(C)C)CC3)NC2=C(NC(=O)/C(C)=C/C=C/[C@H](C)[C@H](O)[C@@H](C)[C@@H](O)[C@@H](C)[C@H](OC(=O)c2cccnc2)[C@@H]1C)C4=O [drawing 222]
CL ([2]; Table 12): 3.0 mL/min/kg
Vd ([2]; Table 12): 1.6 L/kg
ƒAUC/MIC [2, 3]: 28.2
